As usually defined, the MIC is the least concentration at which growth counts as inhibited.

This note sets out measurements from ChEMBL document CHEMBL3228019, “Aminoglycoside antibiotics. 2. N,N-Dialkylkanamycins” (1979).

In brackets after ≈: the same amount, converted by molar mass.

Holding throughout (format): functional
Test [1] deals with Escherichia coli. In words: Antibacterial activity against Escherichia coli 20732 expressing aminoglycoside-2''-nucleotidyltransferase assessed as growth inhibition measured after overnight incubation by two-fold broth dilution method. Background: Dilution methods test growth across graded concentrations, often in twofold steps.
The subject of test [2] is Providencia rettgeri. As to the kind of experiment: Antibacterial activity against Proteus rettgeri 21207 expressing aminoglycoside-2'-acetyltransferase assessed as growth inhibition measured after overnight incubation by two-fold broth dilution method.
Test [3] relates to Escherichia coli. As to the kind of experiment: Antibacterial activity against Escherichia coli 20665 expressing aminoglycoside-3'-phosphotransferase-1 assessed as growth inhibition measured after overnight incubation by two-fold broth dilution method.
The subject of test [4] is Staphylococcus aureus. In words: Antibacterial activity against Staphylococcus aureus 20240 expressing aminoglycoside-3'-phosphotransferase-4 assessed as growth inhibition measured after overnight incubation by two-fold broth dilution method.
Test [5] relates to Pseudomonas aeruginosa. In words: Antibacterial activity against Pseudomonas aeruginosa 20897 expressing aminoglycoside-3'-phosphotransferase-1 and aminoglycoside-6'-acetyltransferase assessed as growth inhibition measured after overnight incubation by two-fold broth dilution method.
Test [6] concerns Enterobacter cloacae. In words: Antibacterial activity against Enterobacter cloacae 9656 assessed as growth inhibition measured after overnight incubation by two-fold broth dilution method.
In test [7] the test system is Klebsiella pneumoniae. In words: Antibacterial activity against Klebsiella pneumoniae 9977 assessed as growth inhibition measured after overnight incubation by two-fold broth dilution method.
The test system of test [8] is Providencia rettgeri. As to the kind of experiment: Antibacterial activity against Proteus rettgeri 9637 assessed as growth inhibition measured after overnight incubation by two-fold broth dilution method.
In test [9] the test system is Escherichia coli. In words: Antibacterial activity against Escherichia coli 9632 assessed as growth inhibition measured after overnight incubation by two-fold broth dilution method.
For test [10], the system named is Enterobacter cloacae. As to the kind of experiment: Antibacterial activity against Enterobacter cloacae 20364 expressing aminoglycoside-3'-phosphotransferase-1 assessed as growth inhibition measured after overnight incubation by two-fold broth dilution method.
The subject of test [11] is Pseudomonas aeruginosa. As to the kind of experiment: Antibacterial activity against Pseudomonas aeruginosa 9843a assessed as growth inhibition measured after overnight incubation by two-fold broth dilution method.
Test [12] concerns Escherichia coli. As to the kind of experiment: Antibacterial activity against Escherichia coli 21218 expressing aminoglycoside-6'-acetyltransferase assessed as growth inhibition measured after overnight incubation by two-fold broth dilution method.
Test [13] concerns Pseudomonas aeruginosa. In words: Antibacterial activity against Pseudomonas aeruginosa 20653 expressing aminoglycoside-3'-phosphotransferase-4 assessed as growth inhibition measured after overnight incubation by two-fold broth dilution method.
Test [14] concerns Pseudomonas aeruginosa. In words: Antibacterial activity against kanamycin A/B impermeable Pseudomonas aeruginosa 21509 assessed as growth inhibition measured after overnight incubation by two-fold broth dilution method.
Test [15] deals with Pseudomonas aeruginosa. As to the kind of experiment: Antibacterial activity against Pseudomonas aeruginosa 20610 expressing aminoglycoside-3'-phosphotransferase and aminoglycoside-3-acetyltransferase-1 assessed as growth inhibition measured after overnight incubation by two-fold broth dilution method.
Test [16] concerns Staphylococcus aureus. As to the kind of experiment: Antibacterial activity against Staphylococcus aureus 9537 assessed as growth inhibition measured after overnight incubation by two-fold broth dilution method.

On to `CNC[C@H]1O[C@H](O[C@H]2[C@H](O)[C@@H](O[C@H]3O[C@H](CO)[C@@H](O)[C@H](NC)[C@H]3O)[C@H](N)C[C@@H]2N)[C@H](O)[C@@H](O)[C@@H]1O`, for which the minimum inhibitory concentration (MIC) in [1], in [2], in test [3], in [4], in [5] and in [6] was more than 125 µg/mL in each case. Also, the MIC was more than 125 µg/mL in test [7]; more than 125 µg/mL in test [8]; more than 125 µg/mL in [9]; more than 125 µg/mL in test [10]; more than 125 µg/mL in test [11]; 125 µg/mL (≈ 244 µM) in [12]. Also, the MIC in [13], in test [14], in [15] and in test [16] was more than 125 µg/mL in each case.

In the case of `CCNC[C@H]1O[C@H](O[C@H]2[C@H](O)[C@@H](O[C@H]3O[C@H](CO)[C@@H](O)[C@H](NCC)[C@H]3O)[C@H](N)C[C@@H]2N)[C@H](O)[C@@H](O)[C@@H]1O`, the MIC was more than 125 µg/mL in [1]; 4 µg/mL (≈ 7.4 µM) in test [2]; more than 125 µg/mL in test [3]; more than 125 µg/mL in [4]; more than 125 µg/mL in [5]; 125 µg/mL (≈ 231 µM) in [6]. For the same compound, the MIC is more than 125 µg/mL in test [7]; 32 µg/mL (≈ 59.2 µM) in test [8]; more than 125 µg/mL in test [9]; more than 125 µg/mL in [10]; more than 125 µg/mL in [11]; more than 125 µg/mL in test [12]. For the same compound, the minimal inhibitory concentration (MIC) in test [13] is more than 125 µg/mL; in test [14] it was more than 125 µg/mL; in test [15], more than 125 µg/mL; in [16], 63 µg/mL (≈ 117 µM).

As for `CNC[C@H]1O[C@H](O[C@H]2[C@H](O)[C@@H](O[C@H]3O[C@H](CO)[C@@H](O)[C@H](NC)[C@H]3O)[C@H](N)C[C@@H]2N)[C@H](N)[C@@H](O)[C@@H]1O`, the MIC is 63 µg/mL (≈ 123 µM) in [1]; 63 µg/mL (≈ 123 µM) in test [2]; 63 µg/mL (≈ 123 µM) in [3]; 8 µg/mL (≈ 15.6 µM) in test [4]; 8 µg/mL (≈ 15.6 µM) in test [5]; 8 µg/mL (≈ 15.6 µM) in test [6]. For the same compound, the MIC is 4 µg/mL (≈ 7.82 µM) in test [7]; 16 µg/mL (≈ 31.3 µM) in [8]; 16 µg/mL (≈ 31.3 µM) in [9]; 63 µg/mL (≈ 123 µM) in test [10]; 8 µg/mL (≈ 15.6 µM) in test [11]; 63 µg/mL (≈ 123 µM) in test [12]. Moreover, the MIC in test [13] came out at 8 µg/mL (≈ 15.6 µM); in test [14], 16 µg/mL (≈ 31.3 µM); in test [15] it was 8 µg/mL (≈ 15.6 µM); in test [16], 4 µg/mL (≈ 7.82 µM).

On to `NC[C@H]1O[C@H](O[C@H]2[C@H](O)[C@@H](O[C@H]3O[C@H](CO)[C@@H](O)[C@H](N)[C@H]3O)[C@H](N)C[C@@H]2N)[C@H](N)[C@@H](O)[C@@H]1O` [BEKANAMYCIN], for which the MIC in test [1] was 32 µg/mL (≈ 66.2 µM); in test [2] it was 32 µg/mL (≈ 66.2 µM); in test [3], more than 125 µg/mL; in test [4], more than 125 µg/mL; in test [5], more than 125 µg/mL; in test [6] it was 2 µg/mL (≈ 4.14 µM). Further, the MIC was 0.25 µg/mL (≈ 0.517 µM) in test [7]; 0.5 µg/mL (≈ 1.03 µM) in [8]; 2 µg/mL (≈ 4.14 µM) in test [9]; more than 125 µg/mL in test [10]; 63 µg/mL (≈ 130 µM) in test [11]; 32 µg/mL (≈ 66.2 µM) in test [12]. The MIC in test [13] is more than 125 µg/mL; in test [14], more than 125 µg/mL; in [15], 32 µg/mL (≈ 66.2 µM); in test [16] it was 0.5 µg/mL (≈ 1.03 µM).

Regarding `NC[C@@H]1O[C@@H](O[C@H]2[C@H](O)[C@@H](O[C@H]3O[C@H](CO)[C@@H](O)[C@H](N)[C@H]3O)[C@H](N)C[C@@H]2N)[C@@H](O)[C@H](O)[C@H]1O` [KANAMYCIN A], the minimum inhibitory concentration (MIC) in test [1] is 125 µg/mL (≈ 258 µM); in test [2], 8 µg/mL (≈ 16.5 µM); in [3], more than 125 µg/mL; in [4], more than 125 µg/mL; in test [5], more than 125 µg/mL; in [6], 4 µg/mL (≈ 8.26 µM). For the same compound, the MIC in test [7] is 0.25 µg/mL (≈ 0.516 µM); in test [8], 0.5 µg/mL (≈ 1.03 µM); in test [9] it was 4 µg/mL (≈ 8.26 µM); in [10] it was more than 125 µg/mL; in [11] it was 63 µg/mL (≈ 130 µM); in test [12], more than 125 µg/mL. The MIC in test [13] was more than 125 µg/mL; in test [14], more than 125 µg/mL; in test [15], 32 µg/mL (≈ 66 µM); in test [16] it was 1 µg/mL (≈ 2.06 µM).

Regarding `N[C@@H]1C[C@H](N)[C@@H](O[C@H]2O[C@@H]3CNC(=O)O[C@H]3[C@H](O)[C@H]2O)[C@H](O)[C@H]1O[C@H]1O[C@H](CO)[C@@H](O)[C@@H]2NC(=O)O[C@@H]12`, the MIC in test [1] is 125 µg/mL (≈ 233 µM); in test [2], 125 µg/mL (≈ 233 µM); in [3], 63 µg/mL (≈ 117 µM); in test [4] it was 32 µg/mL (≈ 59.6 µM); in test [5], 32 µg/mL (≈ 59.6 µM); in test [6], 63 µg/mL (≈ 117 µM). For the same compound, the MIC in [7] came out at 63 µg/mL (≈ 117 µM); in [8] it was 63 µg/mL (≈ 117 µM); in test [9], 32 µg/mL (≈ 59.6 µM); in test [10], 125 µg/mL (≈ 233 µM); in [11], 32 µg/mL (≈ 59.6 µM); in [12], 63 µg/mL (≈ 117 µM). The MIC in test [13], in [14], in [15] and in [16] was 32 µg/mL (≈ 59.6 µM) in each case.
